Assay results reported in patent US7041303B2, “Use of moxonidine for postmyocardial infarction treatment” (Solvay Pharmaceuticals GmbH, priority 1999, dated 2006).

How the values were obtained:
[1] = tested on: Wistar rats with chronic myocardial infarction (MI); assay: Wistar rats with chronic myocardial infarction (coronary artery ligation): body weight, heart weight, heart rate, MAP, mortality; type: in vivo; conditions: for Heart rate: conscious infarct rats
Method: The following studies were performed on male Wistar rats (270 to 320 g, Harlan Zeist, Netherlands). The rats were kept in rooms with a 12 h light/dark cycle and had free access to standard rat diet and water. The animals underwent coronary artery ligation (MI rats) or sham operation without ligation (sham rats). After 24 hours the MI rats were randomized and implanted with osmotic minipumps (Alzet, Model 2001) in order to administer moxonidine in a dose of 3 or 6 mg/kg-day s.c. (subcutaneously) or only operated on without pump implant. The moxonidine treatment was continued up to the end of the experiment three weeks after the surgical procedure.
The left anterior descending coronary artery was ligated under pentobarbital anesthesia (60 mg/kg, i.p.). Brief description: after intubation of the trachea, an incision was made in the skin over the 4th intercostal space. The overlaying muscles were separated and kept aside. The animals were then placed on positive pressure ventilation (rate 65 to 70/min, stroke volume 3 ml) and the thoracic cavity was opened by cutting the intercostal muscles. The pericardium was opened. The heart was left in situ and a 6-0 silk suture was placed below the left coronary artery in the vicinity of the origin of the pulmonary artery. The suture was tightened. Sham rats were subjected to the same procedure but without actual ligation. The ribs were pulled together with 3-0 silk suture. The muscles were then returned to their original position and the skin was sutured.
The data obtained were expressed as group means ± SEM (standard error of the mean) unless otherwise stated. Only data of infarcted hearts with an infarct area covering the major portion of the free heart wall of the left ventricle were included in the evaluation since smaller infarct areas are usually fully compensated hemodynamically. The data were analyzed by one-way analysis of variance (ANOVA) followed by post-hoc Bonferroni analysis. Differences in the structural parameters in moxonidine treated and untreated infarcted hearts were determined by Student t-test independently for the two groups.
Four groups of rats were studied: 2 moxonidine-treated infarct rats (dosage 3 and 6 mg/kg·day), untreated infarct rats and sham-operated control rats (SHAM rats). Coronary artery ligation produced a main infarction in the free wall of the left ventricle. Total mortality of the experimental animals was 29% and was the same in both infarct groups. Data of five rats of the 6 mg/kg·day group had to be excluded since their infarct area was too small. The results of the tests are summarized in Table 1 for experiments with a dosage of 6 mg/kg·day and for a dosage of 3 mg/kg·day, and are explained in the following. The results shown in Table 1 comprise the data of groups of 7 to 14 rats with the exception of the collagen measurements, for which the data refer to groups of 6 to 7 rats.

[2] = tested on: Wistar rats with chronic myocardial infarction (MI); assay: Plasma noradrenaline (HPLC) and ANF (RIA) levels in MI rats; type: in vivo, rat; conditions: for Plasma NA (noradrenaline) level / Plasma ANF (atrial natriuretic factor): three weeks, mean ± SEM
Method: The following studies were performed on male Wistar rats (270 to 320 g, Harlan Zeist, Netherlands). The rats were kept in rooms with a 12 h light/dark cycle and had free access to standard rat diet and water. The animals underwent coronary artery ligation (MI rats) or sham operation without ligation (sham rats). After 24 hours the MI rats were randomized and implanted with osmotic minipumps (Alzet, Model 2001) in order to administer moxonidine in a dose of 3 or 6 mg/kg-day s.c. (subcutaneously) or only operated on without pump implant. The moxonidine treatment was continued up to the end of the experiment three weeks after the surgical procedure. The left anterior descending coronary artery was ligated under pentobarbital anesthesia (60 mg/kg, i.p.). Brief description: after intubation of the trachea, an incision was made in the skin over the 4th intercostal space. The overlaying muscles were separated and kept aside. […] The pericardium was opened. The heart was left in situ and a 6-0 silk suture was placed below the left coronary artery in the vicinity of the origin of the pulmonary artery. The suture was tightened. Sham rats were subjected to the same procedure but without actual ligation. The ribs were pulled together with 3-0 silk suture. The muscles were then returned to their original position and the skin was sutured. 19 days after the surgical procedure for coronary artery ligation the rats were again anesthetized with pentobarbital and a catheter (PE-10, heat-sealed with PE-50) was introduced through the femoral artery and placed in the abdominal aorta. The catheter was advanced subcutaneously as far as the animals' neck, where it was allowed to exit and was fixed and closed at the exit site. The rats were allowed a 2-day recovery period. On the day of sampling the catheter was lengthened with a heparin-treated, saline-filled tube and two 1-ml blood samples were collected after at least 60 minutes. Blood was collected in pre-cooled sample pots (syringes) prepared with 10 μl EDTA (0.1M). After centrifugation the plasma was collected in pre-cooled tubes containing either 1.2 mg glutathione or 10 μl aprotinin (100 KIU; KIU=kilo international units) in order to determine either catecholamines or atrial natriuretic factor (ANF). The tubes were stored at −80° C. The plasma concentrations of noradrenaline, adrenaline and dopamine were determined by HPLC, whereas the concentrations of ANF were analyzed using an RIA test. The data obtained were expressed as group means ± SEM (standard error of the mean) unless otherwise stated. Only data of infarcted hearts with an infarct area covering the major portion of the free heart wall of the left ventricle were included in the evaluation since smaller infarct areas are usually fully compensated hemodynamically. The data were analyzed by one-way analysis of variance (ANOVA) followed by post-hoc Bonferroni analysis. Differences in the structural parameters in moxonidine treated and untreated infarcted hearts were determined by Student t-test independently for the two groups.

[3] = tested on: Wistar rats with chronic myocardial infarction (MI); assay: Measurement of cardiac interstitial collagen (Sirius red) in MI rats; type: in vivo, rat; conditions: interventricular septum, infarct rats, three weeks, mean ± SEM
Method: The following studies were performed on male Wistar rats (270 to 320 g, Harlan Zeist, Netherlands). The rats were kept in rooms with a 12 h light/dark cycle and had free access to standard rat diet and water. The animals underwent coronary artery ligation (MI rats) or sham operation without ligation (sham rats). After 24 hours the MI rats were randomized and implanted with osmotic minipumps (Alzet, Model 2001) in order to administer moxonidine in a dose of 3 or 6 mg/kg-day s.c. (subcutaneously) or only operated on without pump implant. The moxonidine treatment was continued up to the end of the experiment three weeks after the surgical procedure. The left anterior descending coronary artery was ligated under pentobarbital anesthesia (60 mg/kg, i.p.). Brief description: after intubation of the trachea, an incision was made in the skin over the 4th intercostal space. […] The quantity of interstitial collagen was determined on 6 to 7 hearts randomly selected from each experimental group. […] The data obtained were expressed as group means ± SEM (standard error of the mean) unless otherwise stated. […] The data were analyzed by one-way analysis of variance (ANOVA) followed by post-hoc Bonferroni analysis. Differences in the structural parameters in moxonidine treated and untreated infarcted hearts were determined by Student t-test independently for the two groups.

[4] = infarct rats, moxonidine 3 mg/kg daily s.c., three weeks, mean ± SEM
[5] = infarct rats, moxonidine 6 mg/kg daily s.c., three weeks, mean ± SEM
[6] = infarct rats, moxonidine 6 mg/kg daily s.c.

COc1nc(C)nc(Cl)c1NC1=NCCN1 [moxonidine, 4-chloro-5-[(4,5-dihydro-1H-imidazol-2-yl)-amino]-6-methoxy-2-methyl-pyrimidine]
Heart rate ([1]; moxonidine 3 mg/kg daily s.c., three weeks, mean ± SEM): 334 ± 12 beats/min | Heart rate ([1]; moxonidine 6 mg/kg daily s.c., three weeks, mean ± SEM): 321 ± 6 beats/min | Heart weight [1, 4]: 1408 ± 104 mg | Heart/Body weight ratio [1, 4]: 4.7 ± 0.4 | MAP (mean arterial pressure) [1, 4]: 87 ± 3 mmHg | Heart weight [1, 5]: 1076 ± 24 mg | MAP (mean arterial pressure) [1, 5]: 100 ± 5 mmHg | Heart rate measured in conscious animals (in words) ([1]; moxonidine-treated infarct rats versus sham rats): slowing of cardiac activity (bradycardia) compared to the sham rats | Body weight (in words) ([1]; moxonidine-treated infarct rats versus untreated infarct rats and sham rats): slightly lower body weight than the untreated infarct rats | Cardiac weight (in words) ([1]; moxonidine-treated infarct rats versus untreated infarct rats, dosage depending 3 to 6 mg/kg·day): significantly lower than the cardiac weight of untreated infarct rats | Total mortality of the experimental animals ([1]; the same in both infarct groups (treated and untreated)): 29% | Plasma noradrenaline levels (in words) ([2]; infarct rats, 3 mg/kg·day group): clearly reduced | Plasma noradrenaline levels (in words) ([2]; infarct rats, 6 mg/kg·day group, versus sham rats): almost half the values of the sham rats | Plasma NA (noradrenaline) level ([2]; infarct rats, moxonidine 3 mg/kg daily s.c.): 345 ± 108 pg/mL | Plasma ANF (atrial natriuretic factor) ([2]; infarct rats, moxonidine 3 mg/kg daily s.c., n-3): (54 ± 2, n-3) pg/ml | Plasma ANF (atrial natriuretic factor) [2, 6]: 61 ± 8 pg/mL | Plasma NA (noradrenaline) level [2, 6]: 96 ± 20 pg/mL | Plasma ANF levels (in words) ([2]; moxonidine-treated infarct rats versus untreated infarct rats): unchanged compared to those of untreated infarct rats | Plasma noradrenaline levels (in words) ([2]; moxonidine-treated infarct rats, dose not stated, versus sham rats): about half the value found for the sham rats | Interstitial Collagen ([3]; moxonidine 3 mg/kg daily s.c.): 2.4 ± 0.2 % | Interstitial Collagen ([3]; moxonidine 6 mg/kg daily s.c.): 1.4 ± 0.1%
